Assay results from PubChem BioAssay (NCI).
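Five compound concentrations were applied to cells in 96-well plates for 48 hours; endpoints were derived by simple linear interpolation of the resulting dose-response curve. The concentration for full growth arrest is given as TGI.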

How the values were obtained:
Assay in all cases: inhibition of tumour cell growth, NCI panel, 48 h
786-0 renal = tested on: 786-0 renal
A498 renal = tested on: A498 renal
A549 NSCLC = tested on: A549 NSCLC
ACHN renal = tested on: ACHN renal
BT-549 breast = tested on: BT-549 breast
CAKI-1 renal = tested on: CAKI-1 renal
CCRF-CEM leukemia = tested on: CCRF-CEM leukemia
COLO 205 colon = tested on: COLO 205 colon
DU-145 prostate = tested on: DU-145 prostate
EKVX NSCLC = tested on: EKVX NSCLC
HCC-2998 colon = tested on: HCC-2998 colon
HCT-116 colon = tested on: HCT-116 colon
HCT-15 colon = tested on: HCT-15 colon
HL-60(TB) leukemia = tested on: HL-60(TB) leukemia
HOP-62 NSCLC = tested on: HOP-62 NSCLC
HOP-92 NSCLC = tested on: HOP-92 NSCLC
HT29 colon = tested on: HT29 colon
IGROV1 ovarian = tested on: IGROV1 ovarian
K-562 leukemia = tested on: K-562 leukemia
KM12 colon = tested on: KM12 colon
LOX IMVI melanoma = tested on: LOX IMVI melanoma
M14 melanoma = tested on: M14 melanoma
MALME-3M melanoma = tested on: MALME-3M melanoma
MCF7 breast = tested on: MCF7 breast
MDA-MB-231 breast = tested on: MDA-MB-231 breast
MDA-MB-435 = tested on: MDA-MB-435
MDA-N = tested on: MDA-N
MOLT-4 leukemia = tested on: MOLT-4 leukemia
NCI-H226 lung = tested on: NCI-H226 lung
NCI-H23 lung = tested on: NCI-H23 lung
NCI-H460 lung = tested on: NCI-H460 lung
NCI-H522 lung = tested on: NCI-H522 lung
NCI/ADR-RES ovarian = tested on: NCI/ADR-RES ovarian
OVCAR-3 ovarian = tested on: OVCAR-3 ovarian
OVCAR-4 ovarian = tested on: OVCAR-4 ovarian
OVCAR-5 ovarian = tested on: OVCAR-5 ovarian
OVCAR-8 ovarian = tested on: OVCAR-8 ovarian
PC-3 prostate = tested on: PC-3 prostate
RPMI-8226 leukemia = tested on: RPMI-8226 leukemia
RXF 393 renal = tested on: RXF 393 renal
SF-268 CNS = tested on: SF-268 CNS
SF-295 CNS = tested on: SF-295 CNS
SF-539 CNS = tested on: SF-539 CNS
SK-MEL-2 melanoma = tested on: SK-MEL-2 melanoma
SK-MEL-28 melanoma = tested on: SK-MEL-28 melanoma
SK-MEL-5 melanoma = tested on: SK-MEL-5 melanoma
SK-OV-3 ovarian = tested on: SK-OV-3 ovarian
SN12C renal = tested on: SN12C renal
SNB-19 CNS = tested on: SNB-19 CNS
SNB-75 CNS = tested on: SNB-75 CNS
SR leukemia = tested on: SR leukemia
SW-620 colon = tested on: SW-620 colon
T-47D breast = tested on: T-47D breast
TK-10 renal = tested on: TK-10 renal
U251 CNS = tested on: U251 CNS
UACC-257 melanoma = tested on: UACC-257 melanoma
UACC-62 melanoma = tested on: UACC-62 melanoma
UO-31 renal = tested on: UO-31 renal
HS 578T breast = tested on: HS 578T breast

Nc1c(C(=O)Nc2ccc([As](=O)(O)O)cc2)cnc2nnnn12
TGI (786-0 renal): > 100 µM
TGI (A498 renal): > 100 µM
TGI (A549 NSCLC): > 100 µM
TGI (ACHN renal): > 100 µM
TGI (BT-549 breast): > 100 µM
TGI (CAKI-1 renal): > 100 µM
TGI (CCRF-CEM leukemia): > 100 µM
TGI (COLO 205 colon): > 100 µM
TGI (DU-145 prostate): > 100 µM
TGI (EKVX NSCLC): > 100 µM
TGI (HCC-2998 colon): > 100 µM
TGI (HCT-116 colon): > 100 µM
TGI (HCT-15 colon): > 100 µM
TGI (HL-60(TB) leukemia): > 100 µM
TGI (HOP-62 NSCLC): > 100 µM
TGI (HOP-92 NSCLC): > 100 µM
TGI (HT29 colon): > 100 µM
TGI (IGROV1 ovarian): > 100 µM
TGI (K-562 leukemia): > 100 µM
TGI (KM12 colon): > 100 µM
TGI (LOX IMVI melanoma): > 100 µM
TGI (M14 melanoma): > 100 µM
TGI (MALME-3M melanoma): > 100 µM
TGI (MCF7 breast): > 100 µM
TGI (MDA-MB-231 breast): > 100 µM
TGI (MDA-MB-435): > 100 µM
TGI (MDA-N): > 100 µM
TGI (MOLT-4 leukemia): > 100 µM
TGI (NCI-H226 lung): > 100 µM
TGI (NCI-H23 lung): > 100 µM
TGI (NCI-H460 lung): > 100 µM
TGI (NCI-H522 lung): > 100 µM
TGI (NCI/ADR-RES ovarian): > 100 µM
TGI (OVCAR-3 ovarian): > 100 µM
TGI (OVCAR-4 ovarian): > 100 µM
TGI (OVCAR-5 ovarian): > 100 µM
TGI (OVCAR-8 ovarian): > 100 µM
TGI (PC-3 prostate): > 100 µM
TGI (RPMI-8226 leukemia): > 100 µM
TGI (RXF 393 renal): > 100 µM
TGI (SF-268 CNS): > 100 µM
TGI (SF-295 CNS): > 100 µM
TGI (SF-539 CNS): > 100 µM
TGI (SK-MEL-2 melanoma): > 100 µM
TGI (SK-MEL-28 melanoma): > 100 µM
TGI (SK-MEL-5 melanoma): > 100 µM
TGI (SK-OV-3 ovarian): > 100 µM
TGI (SN12C renal): > 100 µM
TGI (SNB-19 CNS): > 100 µM
TGI (SNB-75 CNS): > 100 µM
TGI (SR leukemia): > 100 µM
TGI (SW-620 colon): > 100 µM
TGI (T-47D breast): > 100 µM
TGI (TK-10 renal): > 100 µM
TGI (U251 CNS): > 100 µM
TGI (UACC-257 melanoma): > 100 µM
TGI (UACC-62 melanoma): > 100 µM
TGI (UO-31 renal): > 100 µM

CC(=O)N(C)c1ccc(Nc2ccnc3ccc4nn(C)nc4c23)cc1
TGI (786-0 renal): > 100 µM
TGI (A549 NSCLC): 78 µM
TGI (ACHN renal): 30.2 µM
TGI (BT-549 breast): 69.4 µM
TGI (CAKI-1 renal): 30.5 µM
TGI (CCRF-CEM leukemia): 42 µM
TGI (COLO 205 colon): 45.2 µM
TGI (DU-145 prostate): 92.2 µM
TGI (EKVX NSCLC): 76.1 µM
TGI (HCT-116 colon): 53.1 µM
TGI (HCT-15 colon): 64.5 µM
TGI (HL-60(TB) leukemia): 38.8 µM
TGI (HOP-62 NSCLC): 84.3 µM
TGI (HS 578T breast): 53.2 µM
TGI (HT29 colon): > 100 µM
TGI (KM12 colon): 76.2 µM
TGI (LOX IMVI melanoma): 30.6 µM
TGI (M14 melanoma): > 100 µM
TGI (MALME-3M melanoma): 39.6 µM
TGI (MCF7 breast): 46.6 µM
TGI (MDA-MB-435): > 100 µM
TGI (MDA-N): > 100 µM
TGI (MOLT-4 leukemia): 58 µM
TGI (NCI-H226 lung): 34.3 µM
TGI (NCI-H23 lung): 82.1 µM
TGI (NCI-H522 lung): 41.2 µM
TGI (NCI/ADR-RES ovarian): > 100 µM
TGI (OVCAR-3 ovarian): 50 µM
TGI (OVCAR-4 ovarian): > 100 µM
TGI (OVCAR-5 ovarian): 94.1 µM
TGI (OVCAR-8 ovarian): > 100 µM
TGI (PC-3 prostate): > 100 µM
TGI (RPMI-8226 leukemia): 46.9 µM
TGI (RXF 393 renal): 48.1 µM
TGI (SF-268 CNS): > 100 µM
TGI (SF-295 CNS): 59 µM
TGI (SF-539 CNS): 46.4 µM
TGI (SK-MEL-2 melanoma): 45.7 µM
TGI (SK-MEL-28 melanoma): 73.1 µM
TGI (SK-MEL-5 melanoma): 37.6 µM
TGI (SK-OV-3 ovarian): 47.6 µM
TGI (SN12C renal): > 100 µM
TGI (SNB-19 CNS): > 100 µM
TGI (SNB-75 CNS): > 100 µM
TGI (SR leukemia): 77.1 µM
TGI (SW-620 colon): > 100 µM
TGI (T-47D breast): 76.1 µM
TGI (TK-10 renal): 70.2 µM
TGI (U251 CNS): > 100 µM
TGI (UACC-257 melanoma): 58.3 µM
TGI (UACC-62 melanoma): 37 µM
TGI (UO-31 renal): 29.2 µM

O=C(/C=C\Nc1ccccc1O)C(F)(F)F
TGI (786-0 renal): > 100 µM
TGI (A549 NSCLC): > 100 µM
TGI (ACHN renal): > 100 µM
TGI (BT-549 breast): > 100 µM
TGI (CAKI-1 renal): > 100 µM
TGI (CCRF-CEM leukemia): > 100 µM
TGI (COLO 205 colon): 71.1 µM
TGI (DU-145 prostate): > 100 µM
TGI (EKVX NSCLC): > 100 µM
TGI (HCC-2998 colon): > 100 µM
TGI (HCT-116 colon): > 100 µM
TGI (HCT-15 colon): > 100 µM
TGI (HL-60(TB) leukemia): 67.8 µM
TGI (HOP-62 NSCLC): > 100 µM
TGI (HOP-92 NSCLC): > 100 µM
TGI (HS 578T breast): > 100 µM
TGI (HT29 colon): > 100 µM
TGI (IGROV1 ovarian): > 100 µM
TGI (K-562 leukemia): > 100 µM
TGI (KM12 colon): > 100 µM
TGI (LOX IMVI melanoma): > 100 µM
TGI (M14 melanoma): > 100 µM
TGI (MALME-3M melanoma): 91.3 µM
TGI (MCF7 breast): > 100 µM
TGI (MDA-MB-231 breast): > 100 µM
TGI (MDA-MB-435): > 100 µM
TGI (MDA-N): > 100 µM
TGI (MOLT-4 leukemia): > 100 µM
TGI (NCI-H226 lung): > 100 µM
TGI (NCI-H23 lung): > 100 µM
TGI (NCI-H460 lung): > 100 µM
TGI (NCI-H522 lung): > 100 µM
TGI (NCI/ADR-RES ovarian): > 100 µM
TGI (OVCAR-3 ovarian): 87 µM
TGI (OVCAR-4 ovarian): > 100 µM
TGI (OVCAR-5 ovarian): > 100 µM
TGI (OVCAR-8 ovarian): > 100 µM
TGI (PC-3 prostate): > 100 µM
TGI (RPMI-8226 leukemia): > 100 µM
TGI (RXF 393 renal): > 100 µM
TGI (SF-268 CNS): > 100 µM
TGI (SF-295 CNS): > 100 µM
TGI (SF-539 CNS): > 100 µM
TGI (SK-MEL-2 melanoma): > 100 µM
TGI (SK-MEL-28 melanoma): > 100 µM
TGI (SK-MEL-5 melanoma): 53.5 µM
TGI (SK-OV-3 ovarian): > 100 µM
TGI (SN12C renal): > 100 µM
TGI (SNB-19 CNS): > 100 µM
TGI (SNB-75 CNS): > 100 µM
TGI (SR leukemia): > 100 µM
TGI (SW-620 colon): > 100 µM
TGI (T-47D breast): > 100 µM
TGI (TK-10 renal): > 100 µM
TGI (U251 CNS): > 100 µM
TGI (UACC-257 melanoma): > 100 µM
TGI (UACC-62 melanoma): > 100 µM
TGI (UO-31 renal): > 100 µM
